pIC50: −log10 of the molar value. Like-named read-outs stand apart in the source and are kept apart here.
Assays:
COX II enzyme = conditions: literature report; cited from earlier work
[1] = system: hyperalgesic foot withdrawal (rat carrageenan); assay: Rat Carrageenan-induced Analgesia Test; type: in vivo, Male Sprague-Dawley rats
Procedure: Male Sprague-Dawley rats were treated as previously described for the Carrageenan Foot Pad Edema test. […] After an initial twenty minute period, thermal stimulation was begun on either the injected foot or on the contralateral uninjected foot. A photoelectric cell turned off the lamp and timer when light was interrupted by paw withdrawal. The time until the rat withdraws its foot was then measured. The withdrawal latency in seconds was determined for the control and drug-treated groups, and percent inhibition of the hyperalgesic foot withdrawal determined.

RAT PAW EDEMA = assay: Rat Carrageenan Foot Pad Edema Test; conditions: po, 3 h, read-out: RAT PAW EDEMA % Inhibition
HUMAN COX I = biological target: T1, HUMAN COX I (Homo sapiens, UniProt P23219); assay: COX I activity in vitro (PGE2 formed, ELISA, recombinant enzyme); type: biochemical; conditions: read-out: HUMAN COX I ID50
T1 construct: A 2.0 kb fragment containing the coding region of either human or murine COX-I or human or murine COX-II; made in house; host or cells: SF9 insect cells (recombinant baculovirus, pVL1393); CHAPS-solubilized

HUMAN COX II = biological target: T2, HUMAN COX II (Homo sapiens, UniProt P35354); assay: COX II activity in vitro (PGE2 formed, ELISA, recombinant enzyme); type: biochemical; conditions: arachidonic acid 10 μM, 10-20 min pre-incubation, read-out: HUMAN COX II ID50
T2 construct: A 2.0 kb fragment containing the coding region of either human or murine COX-I or human or murine COX-II; made in house; host or cells: SF9 insect cells (recombinant baculovirus, pVL1393); CHAPS-solubilized
T2 sequence (P35354 18-604): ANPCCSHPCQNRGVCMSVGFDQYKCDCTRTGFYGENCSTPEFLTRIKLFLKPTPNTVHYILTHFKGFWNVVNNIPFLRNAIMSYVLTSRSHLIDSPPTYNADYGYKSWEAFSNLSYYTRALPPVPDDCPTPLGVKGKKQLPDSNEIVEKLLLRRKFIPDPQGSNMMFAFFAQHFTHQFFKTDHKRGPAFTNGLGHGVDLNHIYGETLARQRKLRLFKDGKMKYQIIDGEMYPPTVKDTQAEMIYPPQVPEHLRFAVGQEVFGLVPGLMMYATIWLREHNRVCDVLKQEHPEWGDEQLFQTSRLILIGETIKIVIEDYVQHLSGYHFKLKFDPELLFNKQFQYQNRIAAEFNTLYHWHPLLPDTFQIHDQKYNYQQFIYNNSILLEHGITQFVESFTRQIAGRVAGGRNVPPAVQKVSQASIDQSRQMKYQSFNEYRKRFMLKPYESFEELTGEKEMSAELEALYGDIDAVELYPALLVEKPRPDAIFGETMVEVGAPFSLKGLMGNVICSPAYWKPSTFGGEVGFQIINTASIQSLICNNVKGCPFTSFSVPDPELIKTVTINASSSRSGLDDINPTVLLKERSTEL
Procedure: Evaluation of COX I and COX II activity in vitro
The COX II inhibition activity of the compounds of this invention illustrated in the Examples was determined by the following methods. a. Preparation of recombinant COX baculoviruses
Recombinant baculoviruses were isolated by transfecting 4 μg of baculovirus transfer vector DNA into SF9 insect cells (2x10e8) along with 200 ng of linearized baculovirus plasmid DNA by the calcium phosphate method.
Assay for COX I and COX II activity

[2] = po, 3 h, read-out: ANALGESIA % Inhibition
[3] = recombinant human COX I, arachidonic acid 10 μM, 10-20 min pre-incubation

T1 sequence (P23219 24-599): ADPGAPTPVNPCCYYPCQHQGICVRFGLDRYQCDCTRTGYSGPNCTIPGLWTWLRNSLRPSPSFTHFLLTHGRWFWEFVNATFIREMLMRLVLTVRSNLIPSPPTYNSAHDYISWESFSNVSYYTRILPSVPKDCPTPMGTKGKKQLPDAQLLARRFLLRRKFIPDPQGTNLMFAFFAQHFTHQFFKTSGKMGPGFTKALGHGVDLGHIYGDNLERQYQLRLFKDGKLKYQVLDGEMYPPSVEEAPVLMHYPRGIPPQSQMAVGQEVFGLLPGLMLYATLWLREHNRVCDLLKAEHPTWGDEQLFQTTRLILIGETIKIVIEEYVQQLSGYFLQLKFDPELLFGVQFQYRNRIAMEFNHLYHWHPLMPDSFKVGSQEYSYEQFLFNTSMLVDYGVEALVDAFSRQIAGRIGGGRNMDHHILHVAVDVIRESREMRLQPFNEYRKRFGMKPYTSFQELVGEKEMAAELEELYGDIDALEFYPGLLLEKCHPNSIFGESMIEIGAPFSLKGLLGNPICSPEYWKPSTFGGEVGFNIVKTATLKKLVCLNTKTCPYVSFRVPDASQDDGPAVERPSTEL

For `COc1ccc2cc(CC(=O)O)ccc2c1` [6-methoxy-2-napthylacetic acid], which “inhibition of the COX II enzyme” value (COX II enzyme) is on record?
Its value is “selectively inhibit the COX II enzyme”.

What does the source list for `CS(=O)(=O)c1ccc(C2=C(c3ccc(F)cc3)CCC2)cc1` [Example 1, 1-[2-(4-Fluorophenyl)cyclopenten-1-yl]-4-(methylsulfonyl)benzene]?
inhibition in vivo at 20 mg/kg [1, 2]: 66%; inhibition in vivo at 10 mg/kg (RAT PAW EDEMA): 32%

With `Cc1cc(F)ccc1C1=C(c2ccc(S(C)(=O)=O)cc2)CCC1` [Example 2, 1-[2-(4-Fluoro-2-methylphenyl)cyclopenten-1-yl]-4-(methylsulfonyl)benzene] as the compound, how does the inhibition in vivo at 10 mg/kg (RAT PAW EDEMA) read?
The inhibition in vivo at 10 mg/kg was 39%.

Which results are given for `CS(=O)(=O)c1ccc(C2=C(c3ccc(Cl)cc3)CCC2)cc1` [Example 3, 1-[2-(4-Chlorophenyl)cyclopenten-1-yl]-4-(methylsulfonyl)benzene]?
inhibition in vivo at 20 mg/kg [1, 2]: 41%; inhibition in vivo at 10 mg/kg (RAT PAW EDEMA): 33%

For `CS(=O)(=O)c1ccc(C2=C(c3ccc(Cl)cc3Cl)CCC2)cc1` [Example 4, 1-[2-(2,4-Dichlorophenyl)cyclopenten-1-yl]-4-(methylsulfonyl)benzene], which inhibition in vivo at 10 mg/kg (RAT PAW EDEMA) is on record?
Its inhibition in vivo at 10 mg/kg is 25%.

For `Cc1ccc(C2=C(c3ccc(S(C)(=O)=O)cc3)CCC2)cc1` [Example 5, 1-[2-(4-Methylphenyl)cyclopenten-1-yl]-4-(methylsulfonyl)benzene], which inhibition in vivo at 10 mg/kg (RAT PAW EDEMA) is on record?
The inhibition in vivo at 10 mg/kg was 16%.

Which inhibition in vivo at 20 mg/kg [1, 2] does the source give for `CS(=O)(=O)c1ccc(C2=C(c3ccc(C(F)(F)F)cc3)CCC2)cc1` [Example 6, 1-[2-(4-Trifluoromethylphenyl)cyclopenten-1-yl]-4-(methylsulfonyl)benzene] here?
The inhibition in vivo at 20 mg/kg was 29%.

What about the inhibition in vivo at 10 mg/kg (RAT PAW EDEMA) of the same compound?
The inhibition in vivo at 10 mg/kg was 39%.

With `CSc1ccc(C2=C(c3ccc(S(C)(=O)=O)cc3)CCC2)cc1` [Example 11, 1-[2-(4-Methylthiophenyl)cyclopenten-1-yl]-4-(methylsulfonyl)benzene] as the compound, how does the inhibition in vivo at 20 mg/kg [1, 2] read?
The inhibition in vivo at 20 mg/kg was 39%.

What does the source list for `CC1(C)CC(c2ccc(F)cc2)=C(c2ccc(S(C)(=O)=O)cc2)C1` [Example 12, 1-[2-(4-Fluorophenyl)-4,4-dimethylcyclopenten-1-yl]-4-(methylsulfonyl)benzene]?
pIC50 (HUMAN COX I; recombinant cox-i): 4.74; inhibition in vivo at 20 mg/kg (RAT PAW EDEMA): 45%

For `CC1(C)CC(c2ccc(F)cc2)=C(c2ccc(S(N)(=O)=O)cc2)C1` [Example 13, 4-[2-(4-Fluorophenyl)-4,4-dimethylcyclopenten-1-yl]benzenesulfonamide], which inhibition in vivo at 30 mg/kg ([1]; read-out: ANALGESIA % Inhibition, Assay performed at 30 mg/kg body weight (footnote 2), oral, 3 hours after carrageenan, read-out: […] % Inhibition) is on record?
Its inhibition in vivo at 30 mg/kg is 14%.

What about the pIC50 (HUMAN COX I; [3]) of the same compound?
The pIC50 was 6.30.

And the inhibition in vivo at 30 mg/kg (RAT PAW EDEMA)?
The inhibition in vivo at 30 mg/kg was 34%.

With `CC1(C)CC(c2ccc(Cl)cc2)=C(c2ccc(S(C)(=O)=O)cc2)C1` [Example 14, 1-[2-(4-Chlorophenyl)-4,4-dimethylcyclopenten-1-yl]-4-(methylsulfonyl)benzene] as the compound, how does the pIC50 (HUMAN COX I; recombinant cox-i) read?
Its pIC50 is 5.80.

What about the inhibition in vivo at 30 mg/kg (RAT PAW EDEMA) of the same compound?
The inhibition in vivo at 30 mg/kg was 31%.

Which results are given for `CC1(C)CC(c2ccc(Cl)cc2)=C(c2ccc(S(N)(=O)=O)cc2)C1` [Example 15, 4-[2-(4-Chlorophenyl)-4,4-dimethylcyclopenten-1-yl]benzenesulfonamide]?
pIC50 (HUMAN COX II): > 7.00; inhibition in vivo at 30 mg/kg (RAT PAW EDEMA): 41%

With `CCC1(CC)CC(c2ccc(F)cc2)=C(c2ccc(S(N)(=O)=O)cc2)C1` [Example 19, 4-[2-(4-Fluorophenyl)-4,4-diethylcyclopenten-1-yl]benzenesulfonamide] as the compound, how does the pIC50 (HUMAN COX I; [3]) read?
The pIC50 was 5.00.

What about the pIC50 (HUMAN COX II) of the same compound?
Its pIC50 is 5.41.

Which inhibition in vivo at 30 mg/kg [1, 2] does the source give for `NS(=O)(=O)c1ccc(C2=C(c3ccc(F)cc3)CCC2)cc1` [Example 20, 4-[2-(4-Fluorophenyl)cyclopenten-1-yl]benzenesulfonamide] here?
The inhibition in vivo at 30 mg/kg was 44%.

And the pIC50 (HUMAN COX I; recombinant cox-i)?
Its pIC50 is 5.38.

And the inhibition in vivo at 10 mg/kg (RAT PAW EDEMA)?
The inhibition in vivo at 10 mg/kg was 26%.

With `NS(=O)(=O)c1ccc(C2=C(c3ccc(Cl)cc3)CCC2)cc1` [Example 21, 4-[2-(4-Chlorophenyl)cyclopenten-1-yl]benzenesulfonamide] as the compound, how does the pIC50 (HUMAN COX I; recombinant cox-i) read?
The pIC50 was 5.89.

For `COc1ccc(C2=C(c3ccc(S(C)(=O)=O)cc3)CCC2)cc1` [Example 23, 1-[2-(4-Methoxyphenyl)cyclopenten-1-yl]-4-(methylsulfonyl)benzene], which inhibition in vivo at 30 mg/kg [1, 2] is on record?
The inhibition in vivo at 30 mg/kg was 15%.

And the pIC50 (HUMAN COX I; recombinant cox-i)?
The pIC50 was 5.00.

And the inhibition in vivo at 10 mg/kg (RAT PAW EDEMA)?
Its inhibition in vivo at 10 mg/kg is 22%.

With `CS(=O)(=O)c1ccc(C2=C(c3cccc(F)c3F)CCC2)cc1` [Example 25, 1-[2-(2,3-Difluorophenyl)cyclopenten-1-yl]-4-(methylsulfonyl)benzene] as the compound, how does the pIC50 (HUMAN COX I; [3]) read?
The pIC50 was less than 4.00.

And the pIC50 (HUMAN COX II)?
The pIC50 was greater than 7.00.

With `NS(=O)(=O)c1ccc(C2=C(c3cccc(F)c3F)CCC2)cc1` [Example 26, 4-[2-(2,3-Difluorophenyl)cyclopenten-1-yl]benzenesulfonamide] as the compound, how does the pIC50 (HUMAN COX I; [3]) read?
Its pIC50 is 5.44.

For `NS(=O)(=O)c1ccc(C2=C(c3ccc(Cl)c(Cl)c3)CCC2)cc1` [Example 28, 4-[2-(3,4-Dichlorophenyl)cyclopenten-1-yl]benzenesulfonamide], which inhibition in vivo at 30 mg/kg [1, 2] is on record?
Its inhibition in vivo at 30 mg/kg is 26%.

What about the inhibition in vivo at 10 mg/kg (RAT PAW EDEMA) of the same compound?
Its inhibition in vivo at 10 mg/kg is 10%.

With `COc1ccc(C2=C(c3ccc(S(N)(=O)=O)cc3)CCC2)cc1F` [Example 30, 4-[2-(3-Fluoro-4-methoxyphenyl)cyclopenten-1-yl]benzenesulfonamide] as the compound, how does the pIC50 (HUMAN COX I; recombinant cox-i) read?
Its pIC50 is 5.09.

And the inhibition in vivo at 30 mg/kg (RAT PAW EDEMA)?
Its inhibition in vivo at 30 mg/kg is 47%.

With `COc1ccc(C2=C(c3ccc(S(N)(=O)=O)cc3)CCC2)cc1Cl` [Example 32, 4-[2-(3-Chloro-4-methoxyphenyl)cyclopenten-1-yl]benzenesulfonamide] as the compound, how does the inhibition in vivo at 30 mg/kg [1, 2] read?
Its inhibition in vivo at 30 mg/kg is 17%.

And the inhibition in vivo at 10 mg/kg (RAT PAW EDEMA)?
Its inhibition in vivo at 10 mg/kg is 13%.

Which results are given for `NS(=O)(=O)c1ccc(C2=C(c3ccc(F)c(Cl)c3)CCC2)cc1` [Example 34, 4-[2-(3-Chloro-4-fluorophenyl)cyclopenten-1-yl]benzenesulfonamide]?
inhibition in vivo at 30 mg/kg [1, 2]: 46%; pIC50 (HUMAN COX I; [3]): 5.68; inhibition in vivo at 10 mg/kg (RAT PAW EDEMA): 37%

Which inhibition in vivo at 30 mg/kg (RAT PAW EDEMA) does the source give for `CS(=O)(=O)c1ccc(C2=C(c3ccc4c(c3)OCO4)CCC2)cc1` [Example 35, 5-[2-[4-(Methylsulfonyl)phenyl]cyclopenten-1-yl]-1,3-benzodioxole] here?
The inhibition in vivo at 30 mg/kg was 6%.

With `Cc1ccc(C2=C(c3ccc(S(C)(=O)=O)cc3)CCC2)cn1` [Example 36] as the compound, how does the pIC50 (HUMAN COX I; [3]) read?
Its pIC50 is less than 4.00.

What about the inhibition in vivo at 30 mg/kg (RAT PAW EDEMA) of the same compound?
The inhibition in vivo at 30 mg/kg was 33%.

With `O=S(=O)(CF)c1ccc(C2=C(c3ccc(F)cc3)CCC2)cc1` [Example 37, 1-[2-(4-Fluorophenyl)cyclopenten-1-yl]-4-(fluoromethylsulfonyl)benzene] as the compound, how does the pIC50 (HUMAN COX I; [3]) read?
The pIC50 was less than 4.00.

What about the pIC50 (HUMAN COX II) of the same compound?
Its pIC50 is greater than 7.00.

With `CS(=O)(=O)Nc1ccc([N+](=O)[O-])cc1OC1CCCCC1` [N-(2-cyclohexyloxy-4-nitrophenyl)methanesulfonamide] as the compound, how does the “inhibition of the COX II enzyme” value (COX II enzyme) read?
The value was “inhibits the COX II enzyme”.
